These results are taken from ChEMBL document CHEMBL5303573, “Mapping human microbiome drug metabolism by gut bacteria and their genes” (Nature, 2019).

For series [1] the following is noted: bacteroides fragilis, 12 h, 2 µM.
Description: The drug is tested on Bacteroides fragilis strain: NCTC 9343 for biotransformation. The drug concentrations were measured before and after a 12-h incubation by liquid-chromatography-coupled mass spectrometry (LC–MS)
For series [2] the following is noted: bacteroides thetaiotaomicron, 12 h, 2 µM.
Description: The drug is tested on Bacteroides thetaiotaomicron strain: 7330 for biotransformation. The drug concentrations were measured before and after a 12-h incubation by liquid-chromatography-coupled mass spectrometry (LC–MS)
For series [3] the following is noted: parabacteroides johnsonii, 12 h, 2 µM.
Description: The drug is tested on Parabacteroides johnsonii strain: DSM18315 for biotransformation. The drug concentrations were measured before and after a 12-h incubation by liquid-chromatography-coupled mass spectrometry (LC–MS)
Series [4] can be described thus: The drug is tested on Providencia rettgeri strain: DSM1131 for biotransformation. The drug concentrations were measured before and after a 12-h incubation by liquid-chromatography-coupled mass spectrometry (LC–MS). The series is classed as ADME. Also on record: dose 2 uM, timepoint 0 vs 12 hours. To be noted: 2 µM.
Series [5] is described as follows: The drug is tested on Clostridium asparagiforme strain: DSM15981 for biotransformation. The drug concentrations were measured before and after a 12-h incubation by liquid-chromatography-coupled mass spectrometry (LC–MS). The series is classed as ADME. The following applies: enterocloster asparagiformis, 2 µM. More on the design: dose 2 uM, timepoint 0 vs 12 hours.

Series [6] in a line: The drug is tested on Anaerotruncus colihominis strain: DSM17241 for biotransformation. The drug concentrations were measured before and after a 12-h incubation by liquid-chromatography-coupled mass spectrometry (LC–MS). To be noted: 2 µM.
A short description of series [7]: The drug is tested on Bifidobacterium longum subsp. Infantis strain: CCUG52486 for biotransformation. The drug concentrations were measured before and after a 12-h incubation by liquid-chromatography-coupled mass spectrometry (LC–MS). To be noted: 2 µM.
The conditions of series [8]: bacteroides thetaiotaomicron, 12 h, 2 µM. The source holds these as a separate data set.
Description: The drug is tested on Bacteroides thetaiotaomicron strain: VPI-5482 for biotransformation. The drug concentrations were measured before and after a 12-h incubation by liquid-chromatography-coupled mass spectrometry (LC–MS)
Series [9] can be described thus: The drug is tested on Parabacteroides merdae strain: ATCC43184 for biotransformation. The drug concentrations were measured before and after a 12-h incubation by liquid-chromatography-coupled mass spectrometry (LC–MS). The following applies: 2 µM.
A short description of series [10]: The drug is tested on Collinsella intestinalis strain: DSM13280 for biotransformation. The drug concentrations were measured before and after a 12-h incubation by liquid-chromatography-coupled mass spectrometry (LC–MS). The following applies: 2 µM.
The conditions of series [11]: bacteroides fragilis, 12 h, 2 µM. The source holds these as a separate data set.
Description: The drug is tested on Bacteroides fragilis strain: DS-208 for biotransformation. The drug concentrations were measured before and after a 12-h incubation by liquid-chromatography-coupled mass spectrometry (LC–MS)
The nature of series [12]: The drug is tested on Bacteroides vulgatus strain: ATCC8482 for biotransformation. The drug concentrations were measured before and after a 12-h incubation by liquid-chromatography-coupled mass spectrometry (LC–MS). The following applies: phocaeicola vulgatus, 2 µM.
For series [13] the following is noted: bacteroides stercoris, 12 h, 2 µM.
Description: The drug is tested on Bacteroides stercoris strain: ATCC43183 for biotransformation. The drug concentrations were measured before and after a 12-h incubation by liquid-chromatography-coupled mass spectrometry (LC–MS)
For series [14] the following is noted: bacteroides intestinalis, 12 h, 2 µM.
Description: The drug is tested on Bacteroides intestinalis strain: DSM17393 for biotransformation. The drug concentrations were measured before and after a 12-h incubation by liquid-chromatography-coupled mass spectrometry (LC–MS)
For series [15] the following is noted: bacteroides eggerthii, 12 h, 2 µM.
Description: The drug is tested on Bacteroides eggerthii strain: DSM20697 for biotransformation. The drug concentrations were measured before and after a 12-h incubation by liquid-chromatography-coupled mass spectrometry (LC–MS)
For series [16] the following is noted: bacteroides thetaiotaomicron, 12 h, 2 µM. This is another data set of the same source.
Description: The drug is tested on Bacteroides thetaiotaomicron strain: 3731 for biotransformation. The drug concentrations were measured before and after a 12-h incubation by liquid-chromatography-coupled mass spectrometry (LC–MS)
A short description of series [17]: The drug is tested on Bacteroides xylanisolvens strain: DSM18836 for biotransformation. The drug concentrations were measured before and after a 12-h incubation by liquid-chromatography-coupled mass spectrometry (LC–MS). To be noted: 2 µM.
Series [18] in a line: The drug is tested on Bacteroides pectinophilus strain: ATCC43243 for biotransformation. The drug concentrations were measured before and after a 12-h incubation by liquid-chromatography-coupled mass spectrometry (LC–MS). The following applies: 2 µM.
The nature of series [19]: The drug is tested on Ruminococcus lactaris strain: ATCC29176 for biotransformation. The drug concentrations were measured before and after a 12-h incubation by liquid-chromatography-coupled mass spectrometry (LC–MS). To be noted: 2 µM.
The nature of series [20]: The drug is tested on Clostridium scindens strain: ATCC35704 for biotransformation. The drug concentrations were measured before and after a 12-h incubation by liquid-chromatography-coupled mass spectrometry (LC–MS). The following applies: 2 µM.

With `COc1ccccc1OCC(O)COC(N)=O` (stereo not drawn) [METHOCARBAMOL], the “Bacterial Biotransformation” value in series [1], in series [2], in [3], in series [4], in series [5] and in series [6] was “Compound NOT metabolized” in each case. Moreover, the “Bacterial Biotransformation” value in series [7], in series [8], in series [9], in series [10], in series [11] and in series [12] was “Compound NOT metabolized” throughout. Besides, the “Bacterial Biotransformation” value in [13], in series [14], in series [15], in series [16] and in series [17] was “Compound NOT metabolized” throughout.
Turning to `O=c1[nH]c2ccccc2n1CCCN1CCC(n2c(=O)[nH]c3cc(Cl)ccc32)CC1` [DOMPERIDONE], the “Bacterial Biotransformation” value in [1], in [2], in [3], in series [4], in [5] and in series [6] was “Compound NOT metabolized” each time. Also, the “Bacterial Biotransformation” value in series [7], in series [8], in [9], in [10], in [11] and in series [18] was “Compound NOT metabolized” throughout. For the same compound, the “Bacterial Biotransformation” value in [19], in series [12], in series [13], in [14], in [15] and in [16] was “Compound NOT metabolized” throughout. Also, the “Bacterial Biotransformation” value in [17] was “Compound NOT metabolized”.
Take `CN1CCN(C2=Nc3ccccc3Oc3ccc(Cl)cc32)CC1.O=C(O)CCC(=O)O` [LOXAPINE SUCCINATE]: the “Bacterial Biotransformation” value in series [1], in series [2], in [3], in series [4], in [5] and in series [6] was “Compound NOT metabolized” in each case. Besides, the “Bacterial Biotransformation” value in series [7], in series [8], in [9], in [10], in series [11] and in [18] was “Compound NOT metabolized” throughout. Further, the “Bacterial Biotransformation” value in [19], in [12], in series [13], in series [14], in series [15] and in [16] was “Compound NOT metabolized” throughout. In [17], the “Bacterial Biotransformation” value was “Compound NOT metabolized”.
Turning to `COc1ccc2c3c1O[C@H]1C[C@@H](O)C=C[C@@]31CCN(C)C2` [GALANTAMINE], the “Bacterial Biotransformation” value was “Compound metabolized” in [2]; “Compound NOT metabolized” in series [3]; “Compound NOT metabolized” in series [4]; “Compound NOT metabolized” in series [5]; “Compound NOT metabolized” in [6]; “Compound metabolized” in series [8]. For the same compound, the “Bacterial Biotransformation” value was “Compound NOT metabolized” in [9]; “Compound NOT metabolized” in series [10]; “Compound metabolized” in series [11]; “Compound NOT metabolized” in series [18]; “Compound NOT metabolized” in series [19]; “Compound metabolized” in [12]. Further, the “Bacterial Biotransformation” value in series [13] was “Compound NOT metabolized”; in series [20], “Compound NOT metabolized”; in series [14] it was “Compound NOT metabolized”; in [15], “Compound metabolized”; in series [16], “Compound metabolized”; in [17] it was “Compound metabolized”.
Take `CC1OC(OC2C(O)CC(OC3C(O)CC(OC4CCC5(C)C(CCC6C5CCC5(C)C(C7=CC(=O)OC7)CCC65O)C4)OC3C)OC2C)CC(O)C1O` (stereo not drawn): the “Bacterial Biotransformation” value in series [1] was “Compound NOT metabolized”; in series [2], “Compound metabolized”; in series [3], “Compound metabolized”; in series [4] it was “Compound NOT metabolized”; in [5] it was “Compound NOT metabolized”; in [7], “Compound NOT metabolized”. Also, the “Bacterial Biotransformation” value was “Compound metabolized” in [8]; “Compound metabolized” in series [9]; “Compound NOT metabolized” in series [10]; “Compound metabolized” in series [11]; “Compound NOT metabolized” in series [18]; “Compound NOT metabolized” in series [19]. Besides, the “Bacterial Biotransformation” value in series [12] was “Compound metabolized”; in series [13], “Compound metabolized”; in series [20], “Compound metabolized”; in series [15], “Compound metabolized”; in [16] it was “Compound NOT metabolized”; in series [17], “Compound metabolized”.
For `CC1Cc2ccccc2N1NC(=O)c1ccc(Cl)c(S(N)(=O)=O)c1` (stereo not drawn) [INDAPAMIDE], the “Bacterial Biotransformation” value in [1], in [2], in series [3], in series [4], in series [5] and in series [7] was “Compound NOT metabolized” throughout. The “Bacterial Biotransformation” value in series [8], in [9], in series [10], in series [11], in [18] and in [19] was “Compound NOT metabolized” in each case. Moreover, the “Bacterial Biotransformation” value in series [12], in series [13], in series [20], in series [14], in series [15] and in series [16] was “Compound NOT metabolized” in each case. The “Bacterial Biotransformation” value in [17] is “Compound NOT metabolized”.
Take `C#C[C@]1(OC(C)=O)CC[C@H]2[C@@H]3CCC4=CC(=O)CC[C@@H]4[C@H]3CC[C@@]21C` [NORETHINDRONE ACETATE]: the “Bacterial Biotransformation” value in [1] is given as “Compound metabolized”; in series [2], “Compound metabolized”; in series [3], “Compound metabolized”; in series [4] it was “Compound NOT metabolized”; in series [5], “Compound metabolized”; in [6], “Compound metabolized”. Also, the “Bacterial Biotransformation” value is recorded as “Compound NOT metabolized” in series [7]; “Compound metabolized” in [8]; “Compound metabolized” in [9]; “Compound metabolized” in series [10]; “Compound metabolized” in series [11]; “Compound metabolized” in series [12]. Besides, the “Bacterial Biotransformation” value in series [13] is “Compound metabolized”; in series [20], “Compound NOT metabolized”; in series [14], “Compound metabolized”; in series [15], “Compound metabolized”; in series [16], “Compound metabolized”; in [17] it was “Compound metabolized”.
